Laboratory results reported in article PMC5567816 (ACS chemical biology, 2017).
“Also recorded” adds a separate entry of the source.

Tests used:
HCT116 and HT29 cells = details: 2 μM for 24 h; cited from earlier work
Hek293 cells [1] = experiment: global formylation levels of Hek293 cells; assay type: cell-based; details: inhibitors 1 μM, tubA 0.5 μM, 24 h
Hek293 lysates = experiment: deacylase activities of Hek293 lysates with inhibitors; assay type: cell-based; details: 24 h; vorinostat and PD-106 1 μM, tubA 0.5 μM
Hek293 cells [2] = experiment: global valerylation levels of Hek293 cells; assay type: cell-based; details: inhibitors 1 μM, tubA 0.5 μM, 24 h
HDAC6 = HDAC6 specific inhibitor; cited from earlier work
Hek293 cells [3] = experiment: Western blot of Hek293 cells, histone and tubulin acetylation; assay type: cell-based; details: inhibitors 1 μM, tubA 0.5 μM, 24 h
RAW264.7 cells [4] = experiment: Western blot of RAW264.7 cells, protein acetylation; assay type: cell-based; details: tubA at 0.5 μM
A549 cell line = details: reasonable concentrations; cited from earlier work
HDAC3 = HDAC3 (Homo sapiens, UniProt O15379); experiment: HDAC3 coincubated with TFA substrate and inhibitor
HDAC3, sequence (O15379 whole entry): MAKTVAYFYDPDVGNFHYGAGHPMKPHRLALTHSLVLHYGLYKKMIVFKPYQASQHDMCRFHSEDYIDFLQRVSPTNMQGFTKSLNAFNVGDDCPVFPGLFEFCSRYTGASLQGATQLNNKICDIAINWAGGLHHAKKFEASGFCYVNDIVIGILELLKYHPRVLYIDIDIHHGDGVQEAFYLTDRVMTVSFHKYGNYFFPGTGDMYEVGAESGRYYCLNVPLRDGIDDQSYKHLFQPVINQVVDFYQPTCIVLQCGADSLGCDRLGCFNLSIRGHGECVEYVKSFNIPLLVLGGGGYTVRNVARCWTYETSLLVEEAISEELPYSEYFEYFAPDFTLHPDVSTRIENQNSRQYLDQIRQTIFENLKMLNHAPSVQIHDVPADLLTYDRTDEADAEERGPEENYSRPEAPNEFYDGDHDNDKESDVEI
HDAC3, sequence (Q9Y618 395-489 partner limits assumed): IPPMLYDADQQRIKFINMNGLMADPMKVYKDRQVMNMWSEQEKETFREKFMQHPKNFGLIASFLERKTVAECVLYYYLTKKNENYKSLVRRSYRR

RAW264.7 cells [5] = experiment: cell viability of RAW264.7 cells; assay type: cell-based
RAW264.7 cells [6] = experiment: HMGB-1 secretion from activated RAW264.7 cells; assay type: cell-based; details: LPS-activated RAW264.7; 6 h
RAW264.7 macrophages = experiment: NO production in LPS-challenged RAW264.7 macrophages; assay type: cell-based; details: 1 μM; decrease completely offset when normalized
RAW264.7 cells [7] = experiment: p65 and HDAC3 subcellular localization in LPS-treated RAW264.7 cells; assay type: cell-based; details: after LPS treatment
class IIa HDACs = details: cited from earlier work

Compound | p53 Lys382 acetylation (HCT116 and HT29 cells) | global protein formylation (Hek293 cells [1]) | deacetylase activity of Hek293 lysates (Hek293 lysates) | deformylase activity of Hek293 lysates (Hek293 lysates) | devalerylase activity of Hek293 lysates (Hek293 lysates) | global protein valerylation (Hek293 cells [2]) | IC50 (HDAC6) [nM] | histone H3 and H4 acetylation (Hek293 cells [3]) | tubulin acetylation (Hek293 cells [3]) | p53 Lys382 acetylation (RAW264.7 cells [4]) | p53 Lys373 and Lys382 acetylation (A549 cell line) | effect on HDAC3's ability to deacylate the TFA substrate (HDAC3) | lethality (cell viability) (RAW264.7 cells [5]) | HMGB-1 secretion (RAW264.7 cells [6]) | NO release, before normalization to cell count/viability (RAW264.7 macrophages) | nuclear localization of HDAC3 (RAW264.7 cells [7]) | inhibitory activity for class IIa HDACs (class IIa HDACs)
CN1CCc2c(c3ccccc3n2Cc2ccc(C(=O)NO)cc2)C1 [Tubastatin A] | able to induce hyperacetylation of Lys382 | induced global protein hyperformylation | did not affect overall deacetylation activity; also recorded: no effect on deacetylation or devalerylation | did lower deformylation activity | no effect on deacetylation or devalerylation | nonsignificant hypovalerylation | […] | only affected acetylated tubulin levels | only affected acetylated tubulin levels | do not demonstrate this increase | – | – | – | – | – | – | –
C/C=C1\NC(=O)[C@H]2CSSCC/C=C/[C@H](CC(=O)N[C@H](C(C)C)C(=O)N2)OC(=O)[C@H](C(C)C)NC1=O [romidepsin] | – | – | – | – | – | – | – | – | – | – | induce hyperacetylation of Lys373 and Lys382 | – | – | – | – | – | –
O=C(CCCCCCC(=O)Nc1ccccc1)NO [vorinostat] | – | caused global protein hyperformylation | inhibit both deacetylation and deformylation; also recorded: lowering in both deacetylation and devalerylation | inhibit both deacetylation and deformylation | lowering in both deacetylation and devalerylation | global protein hypervalerylation | – | induced hyperacetylation of tubulin and histones H3 and H4 | induced hyperacetylation of tubulin and histones H3 and H4 | – | – | capable of altering HDAC3’s ability to deacylate the TFA substrate | more lethal than 2a–2c | prevents HMGB-1 secretion | did lower NO release | not as pronounced | –
Nc1ccccc1NC(=O)c1ccc(CNC(=O)OCc2cccnc2)cc1 [entinostat] | – | also capable of this effect | – | – | – | global protein hypervalerylation | – | induced hyperacetylation of histones | without affecting tubulin acetylation levels | – | – | – | more lethal than 2a–2c | – | did lower NO release | – | –
O=C(NO)C(c1ccccc1)c1ccccc1 [dPAHA, diphenyl acetic hydroxamic acid] | – | – | – | – | – | – | – | – | – | – | – | – | – | – | – | – | only possesses the ability to inhibit class IIa HDACs
